# Assay results from patent publication US20130158040A1, “DIAZAINDOLE INHIBITORS OF CRAC” (Hoffmann-La Roche Inc., priority 2011, published 2013).
# pIC50: −log10 of the molar value.
# System: Jurkat cell
# Assay: Jurkat IL-2 Production Assay
# Format: cell-based
# Conditions: Homo sapiens; IL-2 production in Jurkat cells; 18 h~20 h incubation; serum/stimulant condition (1% FBS with PHA or 30% FBS with PMA/Ionomycin) not specified
# Description: Jurkat IL-2 Production Assay
# Jurkat cell (ATCC) was grown in RPMI 1640 with 10% FBS and 1% penicillin/streptomycin. The cell density was kept at 1.2˜1.8×10^6/mL in culture flask before seeding into culture plate, and the cell density in the plate was 0.5×10^6/[…]/well.
# RPMI 1640 with 1% FBS or 30% FBS for high serum assay.
# serial dilution was done in 100% DMSO, and intermediate dilution was done with RPMI 1640 medium with 1% FBS. The DMSO final concentration in culture well was 0.25%.
# PHA (Sigma#L9017-10MG) was used for the assay with 1% FBS in culture medium, and added after 10 minutes exposure of cell to compound/DMSO. The PHA final concentration in culture well was 5 μg/mL. PMA (Sigma# P-8139 5MG)/Ionomycin (Sigma#10634-5MG) was used for the assay with 30% FBS in culture medium, and added at same time point as the 1% FBS culture assay. The final concentration of PMA was 50 ng/mL, and Ionomycin final concentration was 500 ng/mL.
# at 37° C. with 5% CO2 and 95% humidity for 18 h˜20 h.
# IC50 was calculated with the data analysis software XLfit4, General Pharmacology model 251.
row,SMILES,pIC50
1,"Cc1cc(S(=O)(=O)N(C)C)ccc1-c1ncc2[nH]c(-c3c(F)cccc3Cl)cc2n1 [Example 1, 4-[6-(2-chloro-6-fluoro-phenyl)-5H-pyrrolo[3,2-d]pyrimidin-2-yl]-3,N,N-trimethyl-benzenesulfonamide]",6.16
2,"Cc1cc(S(=O)(=O)N(C)C)ccc1-c1cnc2[nH]c(-c3ccccc3Cl)cc2n1 [Example 4, 4-(6-(2-Chlorophenyl)-5H-pyrrolo[2,3-b]pyrazin-2-yl)-N,N,3-trimethylbenzenesulfonamide]",6.88
3,"Cc1cc(S(=O)(=O)N(C)C)ccc1-c1cnc2[nH]c(C3CCCCC3)cc2n1 [Example 7, 4-(6-cyclohexyl-5H-pyrrolo[2,3-b]pyrazin-2-yl)-N,N,3-trimethylbenzenesulfonamide]",6.74
4,"COC(=O)c1ccc(-c2cnc3[nH]c(-c4ccccc4Cl)cc3n2)c(C)c1 [Example 3, 4-[6-(2-Chloro-phenyl)-5H-pyrrolo[2,3-b]pyrazin-2-yl]-3-methyl-benzoic acid methyl ester]",6.69

# More lines, in order of rising pIC50, values ahead:
row,pIC50,SMILES
1,6.12,"Cn1nc(C(F)(F)F)cc1-c1cnc2[nH]c(-c3ccccc3Cl)cc2n1 [Example 2, 6-(2-Chloro-phenyl)-2-(2-methyl-5-trifluoromethyl-2H-pyrazol-3-yl)-5H-pyrrolo[2,3-b]pyrazine]"
2,6.17,"Cn1nc(C(F)(F)F)cc1-c1cnc2[nH]c(C3CCCCC3)cc2n1 [Example 6, 6-Cyclohexyl-2-(1-methyl-3-(trifluoromethyl)-1H-pyrazol-5-yl)-5H-pyrrolo[2,3-b]pyrazine]"
3,6.57,"Cn1nc(C(F)(F)F)cc1-c1cnc2[nH]c(-c3c(F)cccc3Cl)cc2n1 [Example 5, 6-(2-chloro-6-fluorophenyl)-2-(1-methyl-3-(trifluoromethyl)-1H-pyrazol-5-yl)-5H-pyrrolo[2,3-b]pyrazine]"
